The nature of series [1]: DPPH radical scavenging assay. The class given is biochemical. To be noted: for EC50: DPPH radical scavenging, 30 min at room temperature, absorbance 517 nm, triplicate; for DPPH antioxidant activity compared with DAP 1, result in words: DPPH assay. The method, then:
(§1) The antioxidant activity is influenced by many factors, which cannot be fully described with a single antioxidant assay. Thus, in this study, antioxidant activities in vitro were evaluated using the free radical scavenging effect on 2,2′-diphenyl-1-picrylhydrazyl (DPPH), 2,2′-azinobis-(3-ethylbenzthiazoline-6-sulfonate) cation (ABTS^+). and the ferric reducing power (FRAP) assay, respectively, according to the literature with a slight modification.
Each sample in an ethanol solution (0.1 mL) was added to 3.9 mL DPPH ethanol solution (0.1 mmol/L). The solution was vortexed for 10 s and incubated at room temperature for 30 min. […] The Trolox standard solution (concentration range: 0–0.4 mmol/L) in ethanol was analyzed under the same conditions as those used for calibration. […]
(Loss of DPPH colour is used to gauge radical scavenging.)

Series [2] is described as follows: ABTS+ radical scavenging assay. The class given is biochemical. The conditions noted are these: 3 min at room temperature, absorbance 734 nm, triplicate. The method, then:
as §1
The mixture was incubated in the dark at room temperature for 15–16 h before use. […] Each sample solution (0.1 mL) was added to 3.9 mL ABTS^+ solution, and the absorbance was measured at room temperature after 3 min. The Trolox standard solution (concentration range: 0–0.4 mmol/L) in ethanol was analyzed under the same conditions as those used for the calibration. […]

Series [3] can be described thus: Ferric reducing power (FRAP) assay. Type of series: biochemical. To be noted: for reducing antioxidant power (FRAP), result in words: compared with daphnetin or the parent compound; for reducing antioxidant power, fold higher than that of the standard antioxidant Trolox: relative to Trolox. The method, then:
as §1
The FRAP (ferric reducing antioxidant power) reagent was prepared with acetate buffer (300 mmol/L, pH 3.6), 2,4,6-tripyridyl-s-triazine (TPTZ) (10 mmol/L in HCl, 40 mmol/L) and FeCl3 (20 mmol/L). The proportions were 10:1:1 (v:v:v), respectively. Each sample solution was added to the FRAP reagent (1:30, v:v) and incubated at 37 °C for 5 min. The absorbance was determined at 593 nm using a spectrophotometer (Hitachi U-2800 Spectrophotometer, Tokyo, Japan). The Trolox standard solution (concentration range: 0–0.4 mmol/L) in ethanol was analyzed under the same conditions as those used for the calibration. The values of the reducing power were determined using a calibration curve of Trolox and expressed as the Trolox equivalent ([…], mmolTrolox/mmol sample).

A short description of series [4]: Metabolic stability assay in vitro (UGT and COMT incubation system, S9 fraction). Type of series: in vitro ADME, human. The conditions noted are these: for half-life: UGT and COMT incubation system, pooled human S9, 2 mM UDPGA and 0.2 mM SAM, 37 °C, pH 7.4, read-out: metabolic elimination t1/2. An excerpt: The simultaneous improvement of utility as a drug and pharmacological activity is still a challenge for the structural optimization of lead compounds. From the view of the chemical structure, the catechol group is not only the pharmacophore of the coumarins but also the susceptible group for the attack of phase II metabolic enzymes. As phenolic hydroxyls, catechol coumarins primarily undergo conjugative reactions mediated by phase II metabolizing enzymes, including uridine-5-diphosphate glucuronosyl transferase (UGT) and catechol-O-methyltransferase (COMT). […] In summary, 4-carbethoxyl DAP 9 holds strong potential to be developed as an antioxidant agent with excellent antioxidant activity and good pharmacokinetic properties.
Metabolic stability assay in vitro
To determine the effects of a combination of glucuronidation and methylation, daphnetin and compound 9 were
incubated with S9 fraction in the presence of two cofactors (2 mM UDPGA and 0.2 mM SAM). The incubation mixture
contained pooled human S9 fraction (0.02 mg mL-1 protein), 5 mM MgCl2, 2 mM UDPGA, 0.2 mM SAM and 5 mM
daphnetin derivatives (dissolved in DMSO, final concentration 1%) in 200 mL of 50 mM Tris buffer (pH 7.4), as
described in the reported manuscript. Controls were incubated in the absence of UDPGA and SAM. After incubation at
37 °C for 0 to 6 0 min, the reactions were terminated by adding […] of cold acetonitrile. The samples were
centrifuged at 20 000 g for 20 min. The supernatants (200 mL) were subjected to assay for the time - dependent
esculetins depletion using HPLC.
Daphnetin and compound 9 were analyzed by a ultra - fast l iquid chromatography spectrometry system (Shimadzu,
Kyoto, Japan), equipped with two LC - 20AD pumps, a DGU - 20A3 vacuum degasser, a SIL - 20ACHT auto - sampler, a
CTO - 20AC column oven, an SPD - M 20A diode - array detector (DAD), a CBM - 20A communicati ons bus module, a […]
the equation: t1/2 = ln2/-k, where k represents the terminal elimination rate constant and is calculated as the negative […]

Series [5] has as its system mononuclear cells of umbilical blood. Also on record: method as in PMID 15113635. To be noted: cited from earlier work.

For `O=c1cc(C(F)(F)F)c2ccc(O)c(O)c2o1` [Compound 5, 7,8-Dihydroxy-4-trifluoromethyl-2H-chromen-2-one], the EC50 is 45.7 ± 1.26 µM in series [1] and 75.2 ± 1.58 µM in series [2]. Further, the “reducing antioxidant power (FRAP), result in words” value (shortened to “reducing antioxidant power (FRAP)”) in series [3] is reported as “three-fold increase in reducing antioxidant power”.

In the case of `Cc1c(C(F)(F)F)c2ccc(O)c(O)c2oc1=O` [Compound 24, 7,8-Dihydroxy-3-methyl-4-(trifluoromethyl)-2H-chromen-2-one], the results for the EC50 in series [1] and in series [2] were 53.8 ± 2.25 µM and 107 ± 6.23 µM, respectively.

With `O=C(O)Cc1cc(=O)oc2c(O)c(O)ccc12` [Compound 9, 2-(7,8-Dihydroxy-2-oxo-2H-chromen-4-yl)acetic acid], the EC50 came out at 31.4 ± 0.68 µM in series [1] and 72.3 ± 2.7 µM in series [2] (listed as 4-CH2COOH DAP (9)). In series [3], the “reducing antioxidant power (FRAP)” value was “three-fold increase in reducing antioxidant power”. Further, the half-life in series [4] is 96.5 min. The “t1/2 of compound 9 relative to that of compound 1” value in series [4] (UGT and COMT incubation systems in vitro) is on record as “five-fold longer”.

Turning to `CCOC(=O)c1cc2ccc(O)c(O)c2oc1=O` [Compound 17], the values for the half-maximal effective concentration (EC50) in series [1] and in series [2] were 44 ± 0.89 µM and 138.9 ± 0.14 µM, respectively. For the same compound, in series [3], the “reducing antioxidant power (FRAP)” value is given as “this situation did not change”.

`CC(=O)c1cc2ccc(O)c(O)c2oc1=O` [Compound 15]: the concentration giving a half-maximal response (EC50) in series [1] was found to be 50.6 ± 0.61 µM; in series [2], 80.52 ± 0.61 µM. The “reducing antioxidant power, fold higher than that of the standard antioxidant Trolox” value in series [3] was found to be 3 fold.

As for `O=c1oc2c(O)c(O)ccc2c(-c2nnn[nH]2)c1-c1nc2ccccc2s1` [Compound 23, 3-(Benzo[d]thiazol-2-yl)-7,8-dihydroxy-4-(1H-tetrazol-5-yl)-2H-chromen-2-one], the EC50 was found to be 168 ± 11.6 µM in series [1] and 121.7 ± 0.22 µM in series [2]. The “reducing antioxidant power (FRAP)” value in series [3] is “lower antioxidant activity compared with that of compound 19”.

Turning to `CC(=O)Oc1ccc2ccc(=O)oc2c1OC(C)=O` [Compound 12, 2-oxo-2H-Chromene-7,8-diyl diacetate], the values for the EC50 in series [1] and in series [2] were 698 ± 5.22 µM and 4560 ± 50.1 µM, respectively.

Consider `CC(C)(C)c1cc(=O)oc2c(O)c(O)ccc12` [Compound 4, 7,8-Dihydroxy-4-tert-butyl-2H-chromen-2-one], for which the half-maximal effective concentration (EC50) in series [1] amounted to 65.5 ± 2.84 µM; in series [2], 234.7 ± 2.03 µM. Also, the “reducing antioxidant power (FRAP)” value in series [3] is on record as “decreased activities of daphnetin but were still superior to Trolox”.

Turning to `N#Cc1cc2ccc(O)c(O)c2oc1=O` [Compound 14], the results for the EC50 in series [1] and in series [2] were 47 ± 2.05 µM and 95.8 ± 4.18 µM, respectively. Further, the “reducing antioxidant power, fold higher than that of the standard antioxidant Trolox” value in series [3] turned out to be 3 fold.

As for `[N-]=[N+]=NCc1cc(=O)oc2c(O)c(O)ccc12` [Compound 8, 7,8-Dihydroxy-4-azidemethyl-2H-chromen-2-one], the EC50 in series [1] amounted to 62.2 ± 3.73 µM; in series [2], 238 ± 4.47 µM. Further, the “reducing antioxidant power (FRAP)” value in series [3] is given as “markedly decreased antioxidant activity”.

For the compound `O=c1cc(-c2ccccc2)c2ccc(O)c(O)c2o1` [Compound 3, 7,8-Dihydroxy-4-phenyl-2H-chromen-2-one], the “DPPH antioxidant activity compared with DAP 1, result in words” value in series [1] is on record as “lower than that of DAP 1”. In addition, the EC50 in series [1] is 55.6 ± 0.78 µM; in series [2] it was 198 ± 28.2 µM. Also, the “reducing antioxidant power (FRAP)” value in series [3] is listed as “decreased activities of daphnetin but were still superior to Trolox”.

In the case of `COc1cc2ccc(=O)oc2c(O)c1O` [Compound 11, Fraxetin, reference compound], the EC50 was 45.6 ± 1.48 µM in series [1] and 173 ± 4.83 µM in series [2].

`O=C(O)c1cc2ccc(O)c(O)c2oc1=O` [Compound 16]: the EC50 came to 37.7 ± 1.16 µM in series [1] and 146 ± 5.77 µM in series [2]. Moreover, in series [3], the “reducing antioxidant power (FRAP)” value is reported as “little effect on its antioxidant activity”.

Regarding `C#CCNC(=O)c1cc2ccc(O)c(O)c2oc1=O` [Compound 18], the EC50 amounted to 55.6 ± 1.48 µM in series [1] and 91.2 ± 2.29 µM in series [2]. Also, the “reducing antioxidant power (FRAP)” value in series [3] is “this situation did not change”.

`O=c1oc2c(O)c(O)ccc2cc1-c1ccccc1` [Compound 13]: in series [1], the “DPPH antioxidant activity compared with DAP 1, result in words” value is recorded as “more effective”. The figures for the EC50 in series [1] and in series [2] were 43.7 ± 2.08 µM and 108 ± 1.42 µM, respectively.

In the case of `NC(=O)c1c(-c2nc3ccccc3s2)c(=O)oc2c(O)c(O)ccc12` [Compound 22, 3-(benzo[d]thiazol-2-yl)-7,8-dihydroxy-2-oxo-2H-chromene-4-carboxamide], the concentration for a half-maximal effect (EC50) worked out at 66.8 ± 1.38 µM in series [1] and 122 ± 4.41 µM in series [2]. The “reducing antioxidant power (FRAP)” value in series [3] is reported as “lower antioxidant activity compared with that of compound 19”.

Turning to `O=c1oc2c(O)c(O)ccc2cc1-c1nc2ccccc2s1` [Compound 19], the EC50 in series [1] worked out at 71.3 ± 2.4 µM; in series [2], 86.6 ± 3.17 µM. Moreover, in series [3], the “reducing antioxidant power (FRAP)” value is given as “slightly reduced antioxidant activity”.

As to `O=C(O)c1c(-c2nc3ccccc3s2)c(=O)oc2c(O)c(O)ccc12` [Compound 21, 3-(Benzo[d]thiazol-2-yl)-7,8-dihydroxy-2-oxo-2H-chromene-4-carboxylic acid], the results for the EC50 in series [1] and in series [2] were 130 ± 3.54 µM and 108 ± 6.35 µM, respectively. Moreover, the “reducing antioxidant power (FRAP)” value in series [3] is recorded as “significant decrease in antioxidant activity”.

Turning to “Methyl 2-(7,8-dihydroxy-2-oxo-2H-chromen-4-yl)acetic acid [Compound 10]”, the EC50 in series [1] was found to be 50.2 ± 1.12 µM; in series [2], 222.7 ± 1.84 µM. Besides, the “reducing antioxidant power (FRAP)” value in series [3] was “significant decrease in antioxidant activity”.

For `Cc1c(C)c2c(c(C)c1O)CCC(C)(C(=O)O)O2` (stereo not shown) [Trolox, 6-hydroxy-2,5,7,8-tetramethylchroman-2-carboxylic acid, reference compound], the figures for the EC50 in series [1] and in series [2] were 53.2 ± 2.02 µM and 241 ± 2.52 µM, respectively.

Turning to `O=c1ccc2ccc(O)c(O)c2o1` [Compound 1, 7,8-dihydroxycoumarin, reference compound], the EC50 was 46.2 ± 1.45 µM in series [1] and 159 ± 4.63 µM in series [2]. The “reducing antioxidant power, fold higher than that of the standard antioxidant Trolox” value in series [3] is reported as 2.5 fold. The half-life in series [4] turned out to be 20.3 min. In series [5], the “protection of mononuclear cells of umbilical blood from oxidative attack, compared with resveratrol” value is listed as “stronger activities in protecting mononuclear cells of umbilical blood from oxidative attack than resveratrol”.

As usually defined, the EC50 is the midpoint of the concentration-response curve. Read a low EC50 as higher potency in that assay.
